Target: T1, KV4.3 (Ito) (Canis lupus familiaris, UniProt A0A8I3NA05)
T1 sequence (A0A8I3NA05 1-655): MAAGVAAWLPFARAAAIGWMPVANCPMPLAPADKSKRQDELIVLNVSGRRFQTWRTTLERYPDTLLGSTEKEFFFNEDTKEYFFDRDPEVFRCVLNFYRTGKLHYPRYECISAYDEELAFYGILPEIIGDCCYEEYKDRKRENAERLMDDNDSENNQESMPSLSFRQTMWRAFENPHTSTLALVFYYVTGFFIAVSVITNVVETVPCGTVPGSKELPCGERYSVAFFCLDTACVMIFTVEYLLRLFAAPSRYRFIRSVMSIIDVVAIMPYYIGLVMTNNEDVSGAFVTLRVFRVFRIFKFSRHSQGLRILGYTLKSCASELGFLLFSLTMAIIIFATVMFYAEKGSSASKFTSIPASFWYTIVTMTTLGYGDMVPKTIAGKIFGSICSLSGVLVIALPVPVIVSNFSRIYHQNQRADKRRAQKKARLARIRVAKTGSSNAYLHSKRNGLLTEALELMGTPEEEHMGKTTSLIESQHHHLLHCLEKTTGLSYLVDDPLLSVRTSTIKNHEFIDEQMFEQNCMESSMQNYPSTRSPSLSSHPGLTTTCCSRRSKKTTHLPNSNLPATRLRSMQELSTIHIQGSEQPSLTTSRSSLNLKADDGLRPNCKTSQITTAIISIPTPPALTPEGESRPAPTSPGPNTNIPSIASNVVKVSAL
Assay: Whole-cell patch clamp of Ito in dissociated canine ventricular epicardial myocytes
Type: cell-based
Procedure: Single myocytes were isolated from coronary-perfused canine right or left ventricular wedge preparations via enzymatic dissociation. Briefly, the wedge preparations were coronary perfused with nominally Ca^+2-free Tyrode's solution for a period of 15 min. They were then subjected to enzymatic digestion in nominally Ca^2+-free solution supplemented with 0.6 mg/ml collagenase (type II; Worthington) and 0.075 mg/ml protease (type XIV; Sigma) for 25-35 min. The wedge preparation was then perfused for 15 min with a taurine buffer solution containing (in mM): 108 NaCl, 10 HEPES, 11 D-glucose, 4 KCl, 1.2 MgSO4, 1.2 NaH2PO4, 50 taurine and 0.025 CaCl2. pH was adjusted to 7.4 using NaOH. After perfusion, thin slices of tissue were cut from the epicardial surface to obtain single epicardial cells as previously described.^6
Ito and APs were measured in isolated RV or LV myocytes. APs were measured in the current-clamp mode in the whole-cell configuration. APs were initiated using intracellular current injection and recorded continuously by means of Clampex software (Axon Instruments/Molecular Devices) at a sampling frequency of […]. Ito was measured using the Axopatch 200B-2 amplifier in V-Clamp mode.
Ito was recorded in isolated ventricular epicardial cells at 37° C. using whole-cell patch clamp techniques. Ito was elicited using a series of 350 ms voltage steps between −50 mV and +40 mV from a holding potential of −90 mV. A 15 ms prepulse to −20 mV was used to discharge the sodium current. Interpulse interval was 50 ms. The amplitude of Ito was determined by subtracting […] at the end of the pulse. The total charge carried by Ito was determined by calculating the area under the Ito current waveform. The extracellular solution contained (in mM): 140 NaCl, 4 KCl, 1.8 CaCl2, 1.2 MgCl2, 10 HEPES, and 10 glucose, pH 7.4 (adjusted with NaOH). The intracellular solution contained (in mM): 120 KCl, 1.5 MgCl2, 10 HEPES, 0.5 EGTA, 0.01 CaCl2, 5 MgATP, pH 7.2 (adjusted with NaOH). Following baseline measurements, recordings was repeated during exposure to AR-787.

inhibition at 1 µM (1 μM, at +20 mV, 37° C., read-out: reduction of Ito density): 34% | inhibition at 10 µM (10 μM, at +20 mV, 37° C., read-out: reduction of Ito density): 68% | inhibition at 50 µM (50 μM, at +20 mV, 37° C., read-out: reduction of Ito density): 85.2% | IC50 (estimated, read-out: IC50 for Ito inhibition): ~8 µM
SMILES: Cc1nc(-n2cccc2)sc1C(=O)N=c1[nH]c2ccccc2[nH]1 [AR-787, N-(1H-benzimidazol-2-yl)-4-methyl-2-pyrrol-1-yl-thiazole-5-carboxamide]
